Laboratory results published in patent US20250002467A1, “DESIGN, SYNTHESIS AND MECHANISMS OF ANTICANCER ACTIVITY OF NEW ACETYLATED 5-AMINOSALICYLATE-THIAZOLINONE HYBRID DERIVATIVES” (University of Sharjah, priority 2023, published 2025).

Experiments:
[1] = test system: F-180; experiment: SRB cytotoxicity assay, normal fibroblast F-180; assay type: cell-based, human; settings: F-180 normal fibroblast, mean ± SEM
Description: (§1) Eight different cancer cell lines were acquired from the Radiobiology and Experimental Radio Oncology lab, University Medical Center, Hamburg University, Hamburg, Germany. MCF7, MDA-MB-231 (breast cancer), and A549 (lung cancer) cells were maintained in RPMI medium while HCT116 (colon cancer), HepG2 (liver cancer), U87, U373 (glioblastoma), and HeLa (cervical cancer) were maintained in DMEM supplemented with 10% FBS and 1% penicillin/streptomycin (Sigma Aldrich, Missouri, USA). Normal human fibroblast (F180) cells were maintained in DMEM supplemented with 15% FBS. Normal human mammary epithelial cell line (HME1) were maintained in DMEM/F-12 medium supplemented with 10% FBS. All incubations were done at 37° C. in a humidified atmosphere of 5% CO2. All cell lines were authenticated by short tandem repeat (STR) profiling. The CDK4 knockout cells (provided by Dr. Samrein Ahmed, University of Sharjah, United Arab Emirates) were generated by CRISPR-CAS9 technology and were maintained in DMEM supplemented with 10% FBS.
(§2) The cytotoxic effects of HH32 and HH33 compounds were evaluated at various concentrations ranging from 0.0001 to 100 μM by sulphrhodamine-B (SRB) assay as described previously. The anti-proliferative activity was expressed as growth inhibitory concentration (IC50) values, which were calculated by the sigmoidal dose-response curve fitting method using Graph pad prism 6 software (GraphPad Software, San Diego, CA, USA).

[2] = test system: HeLa; experiment: SRB cytotoxicity assay, HeLa; assay type: cell-based
Description: as §1, §2

[3] = test system: HCT-116; experiment: SRB cytotoxicity assay, HCT-116; assay type: cell-based
Description: as §1, §2

[4] = test system: U373; experiment: SRB cytotoxicity assay, U373; assay type: cell-based
Description: as §1, §2

[5] = test system: MCF7; experiment: SRB cytotoxicity assay, MCF7; assay type: cell-based
Description: as §1, §2

[6] = test system: HME1; experiment: SRB cytotoxicity assay, normal mammary epithelial HME1; assay type: cell-based, human; settings: mean ± SEM
Description: as §1, with “The CDK4 knockout cells (provided by Dr. Samrein Ahmed, University of Sharjah, United Arab Emirates) were generated by CRISPR-CAS9 technology and were maintained in DMEM supplemented with 10% FBS.” left out
as §2

[7] = test system: MDA-MB-231; experiment: SRB cytotoxicity assay, MDA-MB-231; assay type: cell-based
Description: as §1, §2

[8] = test system: HepG2; experiment: SRB cytotoxicity assay, HepG2; assay type: cell-based
Description: as §1, §2

[9] = test system: U87; experiment: SRB cytotoxicity assay, U87; assay type: cell-based
Description: as §1, §2

[10] = test system: A549; experiment: SRB cytotoxicity assay, A549; assay type: cell-based
Description: as §1, §2

## COc1cccc2c1C(=O)c1c(O)c3c(c(O)c1C2=O)C[C@@](O)(C(=O)CO)C[C@@H]3O[C@H]1C[C@H](N)[C@H](O)[C@H](C)O1 [DOX, Doxorubicin, reference compound]
[1]
  IC50: 0.29 ± 0.37 µM
[1]; listed as doxorubicin
  IC50: < 1.2 µM
[2]; F180 versus HeLa
  Selectivity index: 0.6
[2]; HME1 versus HeLa
  Selectivity index: 2.4
[2]; Homo sapiens, HeLa, SRB, mean ± SEM
  IC50: 0.46 ± 0.46 µM
[3]; F180 versus HCT116
  Selectivity index: 2.6
[3]; HME1 versus HCT116
  Selectivity index: 10.2
[3]; Homo sapiens, HCT-116, SRB, mean ± SEM
  IC50: 0.11 µM
[4]; F180 versus U373
  Selectivity index: 0.33
[4]; HME1 versus U373
  Selectivity index: 1.3
[4]; Homo sapiens, U373 MG, U373, SRB, mean ± SEM
  IC50: 0.88 ± 0.09 µM
[5]; F180 versus MCF7
  Selectivity index: 4.8
[5]; HME1 versus MCF7
  Selectivity index: 18.7
[5]; Homo sapiens, MCF7, SRB, mean ± SEM
  IC50: 0.06 µM
[6]; HME1 normal epithelial
  IC50: 1.12 ± 0.19 µM
[6]; Homo sapiens, HME1, HME1 normal epithelial
  IC50: < 1.2 µM
[7]; F180 versus MDA-MB-231
  Selectivity index: 0.64
[7]; HME1 versus MDA-MB-231
  Selectivity index: 2.5
[7]; Homo sapiens, MDA-MB-231, SRB, mean ± SEM
  IC50: 0.45 ± 0.11 µM
[8]; F180 versus HepG2
  Selectivity index: 0.78
[8]; HME1 versus HepG2
  Selectivity index: 3.02
[8]; Homo sapiens, HepG2, SRB, mean ± SEM
  IC50: 0.37 ± 0.12 µM
[9]; F180 versus U87
  Selectivity index: 2.9
[9]; HME1 versus U87
  Selectivity index: 11.2
[9]; Homo sapiens, U-87 MG, U87, SRB, mean ± SEM
  IC50: 0.1 ± 0.09 µM
[10]; F180 versus A549
  Selectivity index: 0.47
[10]; HME1 versus A549
  Selectivity index: 1.81
[10]; Homo sapiens, A549, SRB, mean ± SEM
  IC50: 0.62 ± 0.59 µM
